“Also recorded” adds a separate entry of the source. Where two headings read alike, the source gives them in different places.
How the values were obtained:
[1] = Relaxation times (T1, T2) and relaxivities (R1, R2) at 1.5 T; type: physicochemical
Procedure: T1 measurements were carried out using an inversion recovery method with a variable inversion time (TI) at 1.5 T. The MR images were acquired at 35 different TI values ranging from 50 to 1750 ms. T1 relaxation times were obtained from the nonlinear least-squares fit of the signal intensity measured at each T1 value. For T2 measurements the CPMG (Carr-Purcell-Meiboon-Gill) pulse sequence was adapted for multiple spin-echo measurements. Thirty-four images were acquired with 34 different echo time (TE) values. T2 relaxation times were obtained from the nonlinear least-squares fit of the mean pixel values for the multiple spin-echo measurements at each echo time. Relaxivities were then calculated as an inverse (R=1/s·mM) of relaxation time per mM. The determined relaxation times and relaxivities are finally transformed to a phantom map. The phantom images were obtained with the same concentration of Dotarem® and gadolinium complexes or comparative purposes. […] Table 2 summarizes the relaxation times and relaxivities for gadolinium complexes of the present invention along with other Gd-complexes.

ICR mice = assay: In vivo MRI test; details: 0.1 mmol of Gd/kg
Procedure: (§1) To study the contrasting effect of the MRI contrast agent according to the present invention, six-week-old male ICR mice (weight=29-31 g) were used for the in vivo study. The mice were anesthetized by 1.5% isoflurane in oxygen and treated with gadolinium complex (5c) of the present invention at amount of 0.1 mmol of Gd/kg. After the treatment, the mouse was revived from anesthesia and placed in the cage with free access to food and water. The animals were maintained at approximately 37° C. using a warm water blanket.
MR images were taken with 1.5 T (GE Healthcare, Milwaukee, Wis., USA) equipped with a homemade small animal RF coil. The coil was of the receiver type with its inner diameter being 50 mm. The imaging parameters for 3D fast SPGR (spoiled GRASS images) are as follows: repetition time (TR)=8.8 ms; echo time (TE)=3.9 ms; 10 mm field of view (FOV); 256×192 matrix size; 1.0 mm slice thickness; number of acquisition (NEX)=4. The imaging parameters for spin-echo are as follows: TR=500 ms; TE=13 ms; 6 mm FOV; 192×128 matrix size; 1.5 mm slice thickness; NEX=4. Each image was taken with an interval of 3 min and 16 s. […] For analysis of the obtained MR images, signal intensities in specific regions of interest (ROI) were measured using Advantage Window software (GE Medical, USA). The CNR was calculated using Equation 3, where SNR is the signal-to-noise ratio. […]

[2] = ICP measurement of Gd(III) ion concentration in organs with time; type: in vivo, mice; parameters: unit not given here
Procedure: as §1
The excretion via the bile duct was further confirmed by measuring the concentration of Gd(III) ions with time through inductively coupled plasma (ICP) measurement. At 6 h after the injection, the Gd(III) ions were detected in the intestine, confirming that they are excreted via the liver and the bile duct.

[3] = 20 MHz, 298 K; cited from earlier work
[4] = Transmetalation kinetics: evolution of paramagnetic relaxation rate R1P(t)/R1P(0) in presence of ZnCl2; type: physicochemical
Text: […]. The relative value of R1^P at time t, R1^P(t)/R1^P(0), is therefore a good estimate of the extent of transmetalation. The evolution of R1^P(t)/R1^P(0) over time gives relevant information about the kinetics of the reaction, whereas the plateau value theoretically reached at t=∞ will reflect the thermodynamic aspect.
Accordingly, in order to investigate the transmetalation kinetics of the gadolinium complexes according to the present invention, the evolution of water proton relaxation rate (R1^P) of a phosphate-buffered solution (pH 7.4) containing 2.5 mmol/L of Gd-complex and 2.5 mmol/L of ZnCl2 with time was measured. To measure the change in the relaxation rate, 10 μL of a ZnCl2 solution (250 mmol/L) was added to 1 mL of a buffered solution of the Gd-complex and the mixture was vigorously stirred. The same experiment was performed with Dotarem®, Omniscan®, Multihance®, Primovist® and ethyl tranexamate (6) with zinc acetate for comparison. The measurement was made on a 3T whole body system (Magnetom Tim Trip; Simens, Germany) at room temperature.

[5] = reference values from ref. 8 or 9; cited from earlier work

Question: For `C=CCOC(=O)C1CCC(CNC(=O)CN2CCN(CC(=O)[O-])CCN(CC(=O)[O-])CCN(CC(=O)[O-])CC2)CC1.O.[Gd+3]` (centres unmarked) [Compound 5c], which “R1 value compared with commercially available contrast agents (in words)” value ([1]; 1.5 T) is on record?
Answer: The value was “significantly higher R1 values than any of the clinically used contrast agents; also recorded: very high R1 values”.

Question: And the R1 relaxivity ([1]; 1.5 T, mean value(±SD))?
Answer: The R1 relaxivity was 9.5 ± 0.12 mM⁻¹ s⁻¹.

Question: What about the R2 relaxivity ([1]; 1.5 T, mean value(±SD)) of the same compound?
Answer: The R2 relaxivity was 10.9 ± 0.03 mM⁻¹ s⁻¹.

Question: What about the T1 relaxation time ([1]; 1.5 T, mean value(±SD)) of the same compound?
Answer: Its T1 relaxation time is 105.28 ± 1.33 ms.

Question: And the T2 relaxation time ([1]; 1.5 T, mean value(±SD))?
Answer: The T2 relaxation time was 91.74 ± 0.25 ms.

Question: And the “R1 value relative to that of Dotarem” value ([1]; ratio of R1 values)?
Answer: Its value is 2.6 times.

Question: And the “excretion pattern (MR images)” value (ICR mice)?
Answer: The value was “excreted slowly to the intestine via the bile duct through hepatobiliary uptake”.

Question: And the “MR contrasting effect in the liver” value (ICR mice; 1.5 T)?
Answer: Its value is “enhances contrast of the liver”.

Question: What about the “concentration of Gd(III) ions (ICP)” value ([2]; Bile duct, 6 h after injection) of the same compound?
Answer: Its value is 13.95.

Question: What about the “concentration of Gd(III) ions (ICP)” value ([2]; Blood, 1 h after injection) of the same compound?
Answer: The value was 5.16.

Question: And the “concentration of Gd(III) ions (ICP)” value ([2]; Blood, 6 h after injection)?
Answer: Its value is 0.12.

Question: And the “concentration of Gd(III) ions (ICP)” value ([2]; Intestine, 6 h after injection)?
Answer: The value was 2.485.

Question: And the “concentration of Gd(III) ions (ICP)” value ([2]; Kidney, 1 h after injection)?
Answer: Its value is 65.17.

Question: What about the “concentration of Gd(III) ions (ICP)” value ([2]; Kidney, 6 h after injection) of the same compound?
Answer: The value was 68.22.

Question: And the “concentration of Gd(III) ions (ICP)” value ([2]; Kidney, 24 h after injection)?
Answer: Its value is 10.89.

Question: What about the “concentration of Gd(III) ions (ICP)” value ([2]; Kidney, 48 h after injection) of the same compound?
Answer: Its value is 6.91.

Question: What about the “concentration of Gd(III) ions (ICP)” value ([2]; Liver, 1 h after injection) of the same compound?
Answer: The value was 62.09.

Question: And the “concentration of Gd(III) ions (ICP)” value ([2]; Liver, 6 h after injection)?
Answer: Its value is 50.90.

Question: What about the “concentration of Gd(III) ions (ICP)” value ([2]; Liver, 24 h after injection) of the same compound?
Answer: The value was 33.73.

Question: And the “concentration of Gd(III) ions (ICP)” value ([2]; Liver, 48 h after injection)?
Answer: The value was 35.90.

Question: And the “concentration of Gd(III) ions (ICP)” value ([2]; Liver, 72 h after injection)?
Answer: The value was 6.22.

Question: For `CNC(=O)CN(CCN(CCN(CC(=O)[O-])CC(=O)NC)CC(=O)[O-])CC(=O)[O-].[Gd+3]` [Omniscan, [Gd(DTPA-bismethylamide)(H2O)]], which magnetic relaxation rate [3] is on record?
Answer: The magnetic relaxation rate was “about 4.4 mM^−1s^−1”.

Question: What about the “paramagnetic relaxation rate retained, R1P(t)/R1P(0) (kinetic stability)” value ([4]; 72 hours, phosphate-buffered solution pH 7.4, 2.5 mmol/L Gd-complex and 2.5 mmol/L ZnCl2, room temperature, 3T) of the same compound?
Answer: The value was 30%.

Question: What about the “pattern of evolution of the paramagnetic relaxation rate R1P(t)/R1P(0) (in words)” value ([4]; phosphate-buffered solution pH 7.4, 2.5 mmol/L Gd-complex and 2.5 mmol/L ZnCl2, 72 hours) of the same compound?
Answer: The value was “drastic decrease in the rate”.

Question: And the R1 relaxivity [5]?
Answer: The R1 relaxivity was 4.9 ± 0.14 mM⁻¹ s⁻¹.

Question: What about the R2 relaxivity [5] of the same compound?
Answer: Its R2 relaxivity is 3.4 ± 0.25 mM⁻¹ s⁻¹.

Question: What about the T1 relaxation time [5] of the same compound?
Answer: The T1 relaxation time was 209.8 ± 5.82 ms.

Question: What about the T2 relaxation time [5] of the same compound?
Answer: The T2 relaxation time was 290.9 ± 21.02 ms.

Question: With `CNC[C@H](O)[C@@H](O)[C@H](O)[C@H](O)CO.CNC[C@H](O)[C@@H](O)[C@H](O)[C@H](O)CO.O=C([O-])CN(CCN(CC(=O)[O-])CC(=O)O)CCN(CC(=O)[O-])CC(=O)O.[Gd+3]` [Magnevist, (N-Me-glucamine)2[Gd(DTPA)(H2O)]] as the compound, how does the magnetic relaxation rate [3] read?
Answer: Its magnetic relaxation rate is “about 4.7 mM^−1s^−1”.

— US8901294B2, “MRI contrast agent having gadolinium complex” (priority 2010, dated 2014)
